The target in assay [1] is T1, PSD-95 PDZ1 (Homo sapiens, UniProt P78352).
T1 construct: PSD-95 PDZ1 (aa 61–151); made in house; host or cells: E. coli One Shot BL21 Star (DE3)
Put plainly: SPR steady-state binding to immobilized PSD-95 PDZ1. An excerpt: (§1) To confirm the affinities measured by FP using an orthogonal method and to get information about the kinetics of the GPCR–PDZ interactions, we used SPR. This label-free, surface sensitive technique measures the binding of a ligand to an immobilized protein as a function of time based on refractive index changes.
(§2) For each of the PSD-95 PDZ domains, we determined the K d and the stability of the complexes for selected GPCR C-tail peptides. The residence time τ ( = 1/k d) was used as a convenient measure of the stability of the complexes. […] The K d determined from the steady-state responses of a range of C-tail peptide concentrations (Figure 2B and Table S4) correlated well with the K i values obtained by FP (Figure S1).
A Biacore X100 (GE Healthcare) SPR instrument equilibrated to 25.0°C and equipped with a Sensor Chip CM5 (for PDZ1 and PDZ2) or CM4 (for PDZ3) (GE Healthcare) was used for the SPR measurements. The running buffer was HBS-EP+ (10 mM HEPES pH 7.4, 150 mM NaCl, 3 mM EDTA, 0.05% Surfactant P-20 (GE Healthcare)).
PDZ domains were immobilized by amine coupling at a flow rate of 5 µl/min on a surface activated by a 7 min injection of a 1∶1 mixture of 0.4 M 1-ethyl-3-(3-dimethylaminopropyl) carbodiimide (EDC) and 0.1 M N-hydroxysuccinimide (NHS). The remaining active groups were deactivated by a 7 min injection of 1 M ethanolamine HCl pH 8.5. 750 RU PDZ1, 780 RU PDZ2, and 410 RU PDZ3 were immobilized.
GPCR C-tail peptide samples were injected in increasing concentrations for 1 min with 1 min dissociation time at 30 µl/min. Reproducibility was tested by injecting the 20 µM sample again after the highest concentration sample. The binding curves were corrected by subtraction of buffer blanks and the response from a reference surface that was activated with EDC and NHS and deactivated with ethanolamine like the surface with immobilized PDZ domain. For peptides with a cysteine, 1 mM dithiothreitol (DTT) was added to the samples. Steady-state response curves were plotted from the responses 10 s before injection end. The K d was determined by fitting steady-state response curves to a 1∶1 binding model with a linear component to corrrect for low affinity binding, probably resulting from the immobilization: Y = Ymax × X/(X+K d)+B × X.

In assay [2] the target is T2, PSD-95 PDZ2 (Homo sapiens, UniProt P78352).
T2 construct: PDZ2 (aa 155–249); made in house; host or cells: E. coli One Shot BL21 Star (DE3)
Put plainly: SPR steady-state binding to immobilized PSD-95 PDZ2.
Excerpt: as §1, §2
(§3) A Biacore X100 (GE Healthcare) SPR instrument equilibrated to 25.0°C and equipped with a Sensor Chip CM5 (for PDZ1 and PDZ2) or CM4 (for PDZ3) (GE Healthcare) was used for the SPR measurements. The running buffer was HBS-EP+ (10 mM HEPES pH 7.4, 150 mM NaCl, 3 mM EDTA, 0.05% Surfactant P-20 (GE Healthcare)). […]
(§4) GPCR C-tail peptide samples were injected in increasing concentrations for 1 min with 1 min dissociation time at 30 µl/min. […] The K d was determined by fitting steady-state response curves to a 1∶1 binding model with a linear component to corrrect for low affinity binding, probably resulting from the immobilization: Y = Ymax × X/(X+K d)+B × X.

In assay [3] the target is T3, PSD-95 PDZ3 (Homo sapiens, UniProt P78352).
T3 construct: made in house; host or cells: E. coli One Shot BL21 Star (DE3)
The assay can be described thus: SPR steady-state binding to immobilized PSD-95 PDZ3.
Excerpt: as §1, §2, §3, §4

The next assay concerns PSD-95. Put plainly: FP competition assay, PSD-95 PDZ domains overall (strongest binding domain / non-binders). Conditions: FP competition with the isolated PDZ domains, peptide typically 1–512 µM. The protocol: (§5) We used a competition set-up, where a constant concentration of isolated PSD-95 PDZ domain and a labeled reference ligand was titrated with unlabeled peptides from the GPCR C-tail library, typically within a 1–512 µM concentration range, and the resulting curves were fitted to obtain the IC50, which was used to calculate the K i (Figure 1). Three Cy5-labeled peptides with well-documented interactions with PSD-95 were used as reference ligands for the competition assay: Cy5-KIF1Bα was used for PDZ1 [20], Cy5-GluN2B (formerly known as NR2B) was used for PDZ2 and PDZ1-2 [21], and Cy5-CRIPT was used for PDZ3 [22] (Table S1). Competition with unlabeled versions of the reference ligands was used to validate the FP assay by comparison with the literature (Table S2).
(§6) FP measurements were performed in black, flat bottom 384-well NBS microplates (Corning) on a Synergy H4 microplatereader (BioTek Instruments) equipped with a 620/40 nm excitation filter, a 680/30 nm emission filter, and a 660 nm dichroic mirror. Polarization values were corrected with blank samples and samples with fluorescent probe alone. At least 10 data points were measured for each curve, and each data point was measured in triplicate. 25 nM Cy5-labeled probe was used for each assay: Cy5-KIF1Bα for PDZ1, Cy5-GluN2B for PDZ2 and PDZ1-2, and Cy5-CRIPT for PDZ3. All FP measurements were performed in a buffer containing 10 mM HEPES pH 7.4, 150 mM NaCl, and 1% BSA and incubated at least 15 min at room temperature before reading. The signal was stable for more than an hour, showing that the reaction was at equilibrium.
(§7) For the competition binding curves, probe was mixed with a constant concentration of PDZ protein corresponding to the K d and a twofold dilution series of unlabeled peptide in a total volume of 30 µl. The baseline was determined using a sample containing only probe. The IC50 was determined by fitting to a 1∶1 binding model: Y = Ymax − Ymax × X/(X+IC50). The K i was calculated from the IC50 and from the K d for the interaction between the PDZ protein and the probe as described previously.

The next assay relates to PSD-95 PDZ domains. Put plainly: Time-resolved SPR, PSD-95 PDZ domains (kinetics). The assay is classed as binding. Conditions: 500 µM C-tail peptide, all three PDZ domains.
Excerpt: as §2
For all combinations of PDZ domains and GPCR C-tail peptides, we observed dissociation of the complexes within the first second of the dissociation phase (Figure 2A) (faster than the time-resolution of the instrument), meaning that τ is less than 1 s (k d >1 s^−1). This implies that the GPCR–PDZ complexes are very transient, which is in agreement with previous work.
A Biacore X100 (GE Healthcare) SPR instrument equilibrated to 25.0°C and equipped with a Sensor Chip CM5 (for PDZ1 and PDZ2) or CM4 (for PDZ3) (GE Healthcare) was used for the SPR measurements. […]
as §4

The target in assay [4] is T1, PSD-95 PDZ1. The assay can be described thus: FP competition assay, PSD-95 PDZ1 (probe Cy5-KIF1Bα). The assay is classed as binding. Conditions: 25 nM Cy5-KIF1Bα, 10 mM HEPES pH 7.4, 150 mM NaCl, 1% BSA, room temperature, mean Ki ± SEM from two or more independent experiments, read-out: K i PDZ1.
Experimental: (§8) FP measurements were performed in black, flat bottom 384-well NBS microplates (Corning) on a Synergy H4 microplatereader (BioTek Instruments) equipped with a 620/40 nm excitation filter, a 680/30 nm emission filter, and a 660 nm dichroic mirror. Polarization values were corrected with blank samples and samples with fluorescent probe alone. At least 10 data points were measured for each curve, and each data point was measured in triplicate. […] All FP measurements were performed in a buffer containing 10 mM HEPES pH 7.4, 150 mM NaCl, and 1% BSA and incubated at least 15 min at room temperature before reading. The signal was stable for more than an hour, showing that the reaction was at equilibrium.
(§9) For the competition binding curves, probe was mixed with a constant concentration of PDZ protein corresponding to the K d and a twofold dilution series of unlabeled peptide in a total volume of 30 µl. The baseline was determined using a sample containing only probe. The IC50 was determined by fitting to a 1∶1 binding model: Y = Ymax − Ymax × X/(X+IC50). The K i was calculated from the IC50 and from the K d for the interaction between the PDZ protein and the probe as described previously [38].
The target in assay [5] is T2, PSD-95 PDZ2. Put plainly: FP competition assay, PSD-95 PDZ2 (probe Cy5-GluN2B). The assay is classed as binding. Conditions: read-out: K i PDZ2.
Experimental: as §8, §9
The target of assay [6] is T3, PSD-95 PDZ3. Put plainly: FP competition assay, PSD-95 PDZ3 (probe Cy5-CRIPT). In kind it is binding. Conditions: read-out: K i PDZ3. The protocol:
as §5, §6
Saturation binding curves were used to determine the functionality of the PDZ domains by comparison with literature values and to calculate K i values from competition curves. Saturation binding curves were performed by mixing probe with a twofold dilution series of PDZ protein in a total volume of 30 µl. The K d was determined by fitting to a 1∶1 binding model: Y = Ymax × X/(X+K d).
as §7

Peptide text beside a SMILES is read from it. A value given as a limit tells only on which side of the number the result lay.

On to `CC[C@H](C)[C@H](NC(=O)[C@H](CO)NC(=O)[C@H](CO)NC(=O)[C@H](CCC(=O)O)NC(=O)[C@@H](NC(=O)[C@H](Cc1c[nH]c2ccccc12)NC(=O)[C@H](C)NC(=O)[C@H](CCCNC(=N)N)NC(=O)[C@H](CCCNC(=N)N)NC(=O)[C@H](CC(=O)O)NC(=O)[C@@H](N)CC(=O)O)[C@@H](C)O)C(=O)N[C@@H](CC(N)=O)C(=O)N[C@H](C(=O)O)[C@@H](C)O` (H-DDRRAWTESSINT-OH; N-terminus assumed), for which the equilibrium dissociation constant (Kd) at PSD-95 PDZ1 [1], at PSD-95 PDZ2 [2] and on PSD-95 PDZ3 [3] was above 1000 µM each time. In addition, the “Interaction with PSD-95 using fluorescence polarization” value with PSD-95 is “not to interact”. The “Time-resolved binding to PSD-95 PDZ1, PDZ2 and PDZ3 by SPR” value with PSD-95 PDZ domains is “did not interact”.

Regarding `CC[C@H](C)[C@H](NC(=O)[C@H](CCCNC(=N)N)NC(=O)[C@H](CO)NC(=O)[C@@H](NC(=O)[C@H](CS)NC(=O)[C@@H](NC(=O)CNC(=O)[C@H](CCCNC(=N)N)NC(=O)[C@H](CC(=O)O)NC(=O)[C@H](CC(=O)O)NC(=O)[C@@H](N)Cc1ccc(O)cc1)[C@@H](C)O)[C@@H](C)O)C(=O)N[C@H](C(=O)N[C@H](C(=O)N[C@@H](CC(C)C)C(=O)O)[C@@H](C)O)[C@@H](C)O` [SSTR1 Human] (H-YDDRGTCTSRITTL-OH), the Ki on PSD-95 PDZ1 [4] amounted to 50 ± 3.2 µM; at PSD-95 PDZ2 [5], 28 ± 2 µM; at PSD-95 PDZ3 [6], 200 ± 34 µM. Binding on PSD-95 PDZ2 [2] was characterised by a dissociation constant (Kd) of 76 ± 1.5 µM.

These data come from PMC3653948, “PDZ Domain-Mediated Interactions of G Protein-Coupled Receptors with Postsynaptic Density Protein 95: Quantitative Characterization of Interactions” (PLoS ONE, 2013).
